Experimental data from patent US10473574B2, “Assembly for assessing drug permeability with adjustable biomimetic properties” (Syddansk Universitet, priority 2014, dated 2019).
Values belong to the compound of their own block, whether it stands above or below them.

Columns and labels:
in vitro = test: in vitro
Description: A sheet of cellulose hydrate was prewashed in demineralized water. The sheet was put on a flat surface and sprayed with a 1% (M/M) solution of egg yolk lecithin (E-80, Lipoid GmbH, Ludwigshafen, Germany) in ethanol. […] Once the organic solvent was evaporated, two coated sheets were placed one upon the other, sandwiching the phospholipids.
Frantz cells with a permeation surface of 1 cm^2, a maximum volume in the upper compartment of 1.8 mL and a fixed volume in the bottom compartment of 8 mL were used.
The barrier was placed in between of the donor and the acceptor chamber, and a permeability experiment was performed at 25° C. […]
8 mL of phosphate buffer solution was placed into the lower compartment. The barrier was placed, and at time zero (start of the experiment) 1.5 mL of a 10 mM phosphate buffer solution of calcein was placed in the upper compartment. Every 60 minutes, 0.2 mL of the solution in the lower compartment were withdrawn and calcein concentration quantified by fluorescence spectroscopy. The removed volume was replaced with an equivalent amount of fresh buffer.
For all permeability studies, Franz diffusion cells with a surface area of 1 cm^2, upper chamber nominal volume of 2 mL and lower chamber volume of 8 mL were employed. The donor phase (upper chamber) was filled with 1.5 mL hydrophilic marker calcein (5 mM) and different surfactants and solvents, whereas the acceptor compartment (lower chamber) was filled with 8 mL PBS (7.4±0.05). The barrier was placed between the donor and acceptor compartment and the flux (3) of calcein was measured over time. The permeability studies were carried out over a 5 hours period, and samples of 200 μL were withdrawn from the acceptor chamber every 30 min for the first 2 hours and then every 60 min. The withdrawn sample volume was replaced with an equal amount of fresh PBS at each time point. […]

[1] = Permeability of calcein through the empty barrier support (no lipid layer); format: in vitro ADME; conditions: pH 7.4, calcein 5 mM donor, PBS acceptor
Text: It is visible that the permeation of calcein through the empty barrier support is much faster. Specifically, the permeability of calcein is approx. 10 times higher as compared to the barrier of the present invention.

Compound: Cn1c(=O)c2c(ncn2C)n(C)c1=O [caffeine]
permeability with FeSSIF as acceptor media versus other acceptor media (in vitro): unchanged

influence of lipid composition of the barrier on permeability (in vitro): strong influence
Compound: CC(C)(C)NCC(O)COc1cccc2c1CC(O)C(O)C2 (stereo not drawn) [nadolol]

Papp at 5 h, 5 mM [1]: 16.5 ± 1 ×10⁻⁶ cm/s | change of permeability with Polysorbat 80 (in vitro): not increased, but decreased | influence of lipid composition of the barrier on permeability (in vitro): strong influence | increase of permeability with 5% Cremophor relative to PBS (in vitro; 5 h, 5 mM, pH 7.4): ~2 fold | Papp at 5 h, 5 mM (in vitro; pH 7.4, Papp in PBS): 2.7 ± 0.5 ×10⁻⁶ cm/s | Papp (in vitro; pH 7.4, permeability coefficient (P)): 1.2 ± 0.1 ×10⁻⁶ cm/s
Compound: O=C(O)CN(CC(=O)O)Cc1cc2c(cc1O)Oc1cc(O)c(CN(CC(=O)O)CC(=O)O)cc1C21OC(=O)c2ccccc21 [calcein]

influence of lipid composition of the barrier on permeability (in vitro): strong influence
Compound: CC(C)Cc1ccc(C(C)C(=O)O)cc1 (stereo not drawn) [ibuprofen]
